Results from PubChem BioAssay (NCI).
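Briefly, cells in 96-well plates were exposed to five compound concentrations for 48 h, and endpoints were estimated by linear interpolation. TGI: concentration producing complete growth inhibition.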

What was measured:
Assay in all cases: growth of human tumour cells (NCI), 48 h
HCT-116 colon = test system: HCT-116 colon
HL-60(TB) leukemia = test system: HL-60(TB) leukemia
M14 melanoma = test system: M14 melanoma
SK-MEL-5 melanoma = test system: SK-MEL-5 melanoma
OVCAR-8 ovarian = test system: OVCAR-8 ovarian
HCC-2998 colon = test system: HCC-2998 colon
SK-OV-3 ovarian = test system: SK-OV-3 ovarian
A549 NSCLC = test system: A549 NSCLC
OVCAR-4 ovarian = test system: OVCAR-4 ovarian
HOP-92 NSCLC = test system: HOP-92 NSCLC
UACC-62 melanoma = test system: UACC-62 melanoma
NCI-H23 lung = test system: NCI-H23 lung
CCRF-CEM leukemia = test system: CCRF-CEM leukemia
HOP-18 NSCLC = test system: HOP-18 NSCLC
SN12C renal = test system: SN12C renal
RXF 393 renal = test system: RXF 393 renal
SK-MEL-28 melanoma = test system: SK-MEL-28 melanoma
HT29 colon = test system: HT29 colon
MALME-3M melanoma = test system: MALME-3M melanoma
SK-MEL-2 melanoma = test system: SK-MEL-2 melanoma
SNB-19 CNS = test system: SNB-19 CNS
UO-31 renal = test system: UO-31 renal
KM12 colon = test system: KM12 colon
M19-MEL melanoma = test system: M19-MEL melanoma
LXFL 529 NSCLC = test system: LXFL 529 NSCLC
K-562 leukemia = test system: K-562 leukemia
SW-620 colon = test system: SW-620 colon
U251 CNS = test system: U251 CNS
CAKI-1 renal = test system: CAKI-1 renal
DMS 114 small cell lung = test system: DMS 114 small cell lung
IGROV1 ovarian = test system: IGROV1 ovarian
HOP-62 NSCLC = test system: HOP-62 NSCLC
DLD-1 colon = test system: DLD-1 colon
A498 renal = test system: A498 renal
MOLT-4 leukemia = test system: MOLT-4 leukemia
NCI-H522 lung = test system: NCI-H522 lung
COLO 205 colon = test system: COLO 205 colon
SR leukemia = test system: SR leukemia
RPMI-8226 leukemia = test system: RPMI-8226 leukemia
TK-10 renal = test system: TK-10 renal
OVCAR-5 ovarian = test system: OVCAR-5 ovarian
786-0 renal = test system: 786-0 renal
OVCAR-3 ovarian = test system: OVCAR-3 ovarian
KM20L2 colon = test system: KM20L2 colon
SF-539 CNS = test system: SF-539 CNS
HCT-15 colon = test system: HCT-15 colon
EKVX NSCLC = test system: EKVX NSCLC
MDA-MB-435 = test system: MDA-MB-435
MDA-MB-231 breast = test system: MDA-MB-231 breast
HS 578T breast = test system: HS 578T breast
NCI-H460 lung = test system: NCI-H460 lung
SF-295 CNS = test system: SF-295 CNS
BT-549 breast = test system: BT-549 breast
NCI/ADR-RES ovarian = test system: NCI/ADR-RES ovarian
PC-3 prostate = test system: PC-3 prostate
LOX IMVI melanoma = test system: LOX IMVI melanoma
NCI-H226 lung = test system: NCI-H226 lung
T-47D breast = test system: T-47D breast
SNB-75 CNS = test system: SNB-75 CNS
DU-145 prostate = test system: DU-145 prostate
UACC-257 melanoma = test system: UACC-257 melanoma
MDA-N = test system: MDA-N
MCF7 breast = test system: MCF7 breast
SF-268 CNS = test system: SF-268 CNS
ACHN renal = test system: ACHN renal

Nc1ccc2c(c1)Oc1c(F)c(F)cc3c(=O)c(C(=O)O)cn-2c13
TGI (HCT-116 colon): > 100 µM | TGI (HL-60(TB) leukemia): > 100 µM | TGI (M14 melanoma): > 100 µM | TGI (SK-MEL-5 melanoma): 47.9 µM | TGI (OVCAR-8 ovarian): > 100 µM | TGI (HCC-2998 colon): > 100 µM | TGI (SK-OV-3 ovarian): > 100 µM | TGI (A549 NSCLC): > 100 µM | TGI (OVCAR-4 ovarian): > 100 µM | TGI (HOP-92 NSCLC): 96.9 µM | TGI (UACC-62 melanoma): > 100 µM | TGI (NCI-H23 lung): > 100 µM | TGI (CCRF-CEM leukemia): > 100 µM | TGI (HOP-18 NSCLC): > 100 µM | TGI (SN12C renal): > 100 µM | TGI (RXF 393 renal): > 100 µM | TGI (SK-MEL-28 melanoma): > 100 µM | TGI (HT29 colon): > 100 µM | TGI (MALME-3M melanoma): > 100 µM | TGI (SK-MEL-2 melanoma): > 100 µM | TGI (SNB-19 CNS): > 100 µM | TGI (UO-31 renal): 93.7 µM | TGI (KM12 colon): > 100 µM | TGI (M19-MEL melanoma): > 100 µM | TGI (LXFL 529 NSCLC): > 100 µM | TGI (K-562 leukemia): > 100 µM | TGI (SW-620 colon): > 100 µM | TGI (U251 CNS): > 100 µM | TGI (CAKI-1 renal): > 100 µM | TGI (DMS 114 small cell lung): > 100 µM | TGI (IGROV1 ovarian): > 100 µM | TGI (HOP-62 NSCLC): > 100 µM | TGI (DLD-1 colon): > 100 µM | TGI (A498 renal): 49.7 µM | TGI (MOLT-4 leukemia): > 100 µM | TGI (NCI-H522 lung): > 100 µM | TGI (COLO 205 colon): > 100 µM | TGI (SR leukemia): > 100 µM | TGI (RPMI-8226 leukemia): > 100 µM | TGI (TK-10 renal): > 100 µM | TGI (OVCAR-5 ovarian): > 100 µM | TGI (786-0 renal): > 100 µM | TGI (OVCAR-3 ovarian): 96.6 µM | TGI (KM20L2 colon): > 100 µM | TGI (SF-539 CNS): > 100 µM | TGI (HCT-15 colon): > 100 µM | TGI (EKVX NSCLC): > 100 µM

C=C1NC(=O)C(CC(C(=O)C(=O)Nc2c(C)cccc2C(C)(C)C)C(=O)c2ccc3ccccc3c2)C(=O)N1 (stereo not given)
TGI (HCT-116 colon): > 100 µM | TGI (HL-60(TB) leukemia): > 100 µM | TGI (M14 melanoma): > 100 µM | TGI (SK-MEL-5 melanoma): > 100 µM | TGI (OVCAR-8 ovarian): > 100 µM | TGI (HCC-2998 colon): > 100 µM | TGI (SK-OV-3 ovarian): > 100 µM | TGI (MDA-MB-435): > 100 µM | TGI (A549 NSCLC): > 100 µM | TGI (OVCAR-4 ovarian): > 100 µM | TGI (MDA-MB-231 breast): > 100 µM | TGI (HS 578T breast): > 100 µM | TGI (HOP-92 NSCLC): > 100 µM | TGI (NCI-H460 lung): > 100 µM | TGI (UACC-62 melanoma): > 100 µM | TGI (SF-295 CNS): > 100 µM | TGI (BT-549 breast): > 100 µM | TGI (NCI-H23 lung): > 100 µM | TGI (CCRF-CEM leukemia): > 100 µM | TGI (SN12C renal): > 100 µM | TGI (RXF 393 renal): > 100 µM | TGI (SK-MEL-28 melanoma): > 100 µM | TGI (HT29 colon): > 100 µM | TGI (SK-MEL-2 melanoma): > 100 µM | TGI (SNB-19 CNS): > 100 µM | TGI (UO-31 renal): > 100 µM | TGI (NCI/ADR-RES ovarian): > 100 µM | TGI (PC-3 prostate): > 100 µM | TGI (KM12 colon): > 100 µM | TGI (LOX IMVI melanoma): > 100 µM | TGI (NCI-H226 lung): > 100 µM | TGI (T-47D breast): > 100 µM | TGI (K-562 leukemia): > 100 µM | TGI (SW-620 colon): > 100 µM | TGI (U251 CNS): > 100 µM | TGI (CAKI-1 renal): > 100 µM | TGI (SNB-75 CNS): > 100 µM | TGI (DU-145 prostate): > 100 µM | TGI (UACC-257 melanoma): > 100 µM | TGI (MDA-N): > 100 µM | TGI (A498 renal): > 100 µM | TGI (MOLT-4 leukemia): > 100 µM | TGI (COLO 205 colon): > 100 µM | TGI (SR leukemia): > 100 µM | TGI (RPMI-8226 leukemia): > 100 µM | TGI (MCF7 breast): > 100 µM | TGI (SF-268 CNS): > 100 µM | TGI (OVCAR-5 ovarian): > 100 µM | TGI (786-0 renal): > 100 µM | TGI (OVCAR-3 ovarian): > 100 µM | TGI (ACHN renal): > 100 µM | TGI (SF-539 CNS): > 100 µM | TGI (HCT-15 colon): > 100 µM
